Source: US20260226084A1, “DUAL RAF AND TUBULIN INHIBITORS AND METHODS OF USE THEREOF” (Deciphera Pharmaceuticals, LLC, priority 2023, published 2026)

Test system: tubulin polymerization in HCT-116 cells
Assay: Cellular Tubulin Polymerization Assay
Assay type: cell-based
Conditions: Homo sapiens, Table 3, read-out: Tubulin Cellular (IC50 class)
Procedure: HCT-116 cells (catalog #CCL-247) are obtained from the American Type Culture Collect (ATCC, Manassas, VA). Briefly, cells are grown in McCoy's 5A supplemented with 10% characterized fetal bovine serum (Invitrogen, Carlsbad, CA) and 1% Penicillin/Streptomycin/L-Glutamine at 37° C., 5% CO2, and 95% humidity. Cells are expanded until reaching 70-95% confluency at which point they are subcultured or harvested for assay use. 450000 cells are added per well in 1500 μL complete growth medium in a tissue culture treated, 12-well plate. Plates are incubated for 18 to 24 h at 37° C., 5% CO2, and 95% humidity. At the end of the incubation, 2000 μL of base culture media is added to each well, followed by a serial dilution of compound. Plates are incubated for an additional 1 h at 37° C., 5% CO2, and 95% humidity. Lysates are generated by the addition of 100 μL Lysis and Microtubule Stabilization Buffer 1 (LMS01, Cytoskeleton Inc, Denver, CO) supplemented with GTP (BST06, Cytoskeleton Inc), ATP (BSA04, Cytoskeleton Inc), and Protease Inhibitor Cocktail Stock (PIC02, Cytoskeleton Inc). Cells are scraped off wells using a rubber cell scraper and collected in a clean 96-well plate. Lysates are centrifuged at 1000×g, 37° C. for 10 min and supernatant fraction is placed into an additional 96-well plate. The remaining pellet fraction is reconstituted in 100 μL LMS01 buffer and sonicated for 10 min. Pellet and Supernatant fractions are probed for α-tubulin via western blot analysis on the Jess System or equivalent (Bio-techne, Minneapolis, MN). Data is analyzed using Prism software (Graphpad, San Diego, CA) to calculate IC50values.

IC50 | SMILES
< 100 nM | Cc1ccc(NC(=O)c2cc(C#N)cnn2)cc1-c1ccnc(-c2ccnc(NC(=O)C3CC3)c2)c1 [Example 96, 5-cyano-N-(3-(2′-(cyclopropanecarboxamido)-[2,4′-bipyridin]-4-yl)-4-methylphenyl)pyridazine-3-carboxamide]
< 100 nM | Cc1ccc(NC(=O)c2cc(C(F)(F)F)cnn2)cc1-c1ccnc(-c2ccnc(NC(=O)C3CC3)c2)c1 [Example 67]
500 to 1000 nM | Cc1ccc(NC(=O)c2cnc(C(F)(F)F)nc2)cc1-c1ccnc(-c2ccnc(NC(=O)C3CC3)c2)c1 [Example 17]
< 100 nM | Cc1ccc(NC(=O)c2cc(C3CC3)cnn2)cc1-c1ccnc(-c2ccnc(NC(=O)C3CC3)c2)c1 [Example 43]
1000 to 10000 nM | Cc1ccc(NC(=O)c2cc(C(C)(F)F)cnn2)cc1-c1ccnc(-c2ccnc(NC(=O)C3CC3)c2)c1 [Example 57]
